Where two headings read alike, the source gives them in different places.
How the values were obtained:
subarachnoid hemorrhage [1] = details: human, in vivo
[2] = system: subarachnoid hemorrhage induced vasospasm; experiment: Intraluminal filament-induced SAH in mice, ENO inhalation for 3 days (Background Example 2)
hemoglobin = experiment: S-nitrosylation of hemoglobin / blood NO after 3 days exposure to ENO (FIG. 5); assay type: in vivo; details: 3 days exposure to 20 ppm ENO
subarachnoid hemorrhage [3] = experiment: Laser Doppler blood flow in MCA territory and blood pressure 7 days after SAH (Background Example 3); assay type: in vivo; details: mice 7 days after SAH
Experimental: Mice were subjected to subarachnoid hemorrhage induced by filament perforation of the right middle cerebral artery (MCA). Mice were allowed to recover for 7 days. The mice were then anesthetized and a laser Doppler flow probe was positioned over the brain within the territory perfused by the MCA and blood pressure was recorded. The animals were allowed to stabilize for 30 minutes (time=1-30 min).

[4] = Blood pressure with or without ENO inhalation in normal mice; details: inhalation of 20 ppm, n=5 each group
vasospasm = details: cited from earlier work
[5] = SAH mice, 20 ppm ENO inhalation 3 days, p<0.01
[6] = inhalation at 20 ppm for 3 days

CCON=O [ENO, ethyl nitrite]
Cerebral infarction (subarachnoid hemorrhage [1]): prevented | Vasospasm (subarachnoid hemorrhage [1]): does not occur | Rotarod performance ([2]; 3 days post-SAH, inhalation of 20 ppm, p=0.06): a trend for improvement | Arterial narrowing (large vessel spasm) [2, 5]: improved | Decreased forebrain ROD (small vessel spasm) [2, 5]: improved | Subarachnoid hemorrhage induced vasospasm [2, 6]: attenuated | Systemic hypotension [2, 6]: without causing systemic hypotension | Effect in sham surgery mice ([2]; sham surgery, 20 ppm inhalation, n=5 each group, p=0.9): no effect | Red blood cell lysate nitrosothiol (SNO) increase (hemoglobin; FIG. 5A): approximately 4 fold | Total red blood cell NO (hemoglobin; FIG. 5B): increase | Change in serum total NO (hemoglobin; FIG. 5C): negligible | Mean arterial pressure (subarachnoid hemorrhage [3]; 20 ppm ENO added to inspiratory gas): remained unchanged | Blood flow increase (laser Doppler, MCA territory) (subarachnoid hemorrhage [3]; onset of 20 ppm ENO): 25% | Change in blood pressure [4]: did not cause a change

O=NO [sodium nitrite]
Vasospasm compared to control (vasospasm; both regimens: low dose infusion plus bolus, or higher dose infusion without bolus): reduced vasospasm | Vasospasm reduced to (vasospasm; higher dose infusion, no bolus, two of three cases): 20% | Transient blood pressure reduction (vasospasm; lower dose infusion over 24 hours plus bolus, after bolus): more than 15%

CCCCON=O [butyl nitrite]
Cerebral infarction (subarachnoid hemorrhage [1]; iv): prevented | Mean arterial blood pressure reduction (subarachnoid hemorrhage [1]; iv): ≤ 10% | Vasospasm (subarachnoid hemorrhage [1]; iv): does not occur

— patent publication US20110003012A1, “TREATING PATIENTS WITH SUBARACHNOID HEMORRHAGE” (Duke University, priority 2007, published 2011)
